Measurements: ChEMBL document CHEMBL4229568, “Discovery of natural flavonoids as activators of Nrf2-mediated defense system: Structure-activity relationship and inhibition of intracellular oxidative insults” (Bioorg Med Chem, 2018)
The source made the active and inactive calls. No cut-off for these calls is given here.

What was measured:
BEAS-2B [1] = assay: Downregulation of Keap1 protein levels in human BEAS2B cells at 50 to 100 uM after 18 hrs by immunoblot analysis; assay type: functional, cell-based
[2] = target: T1, Nuclear factor erythroid 2-related factor 2 (Homo sapiens) (UniProt Q16236); assay: Activation of Nrf2 in human BEAS2B cells assessed as upregulation of Nrf2 protein expression at 6.25 uM pretreated for 1 hr followed by co-treatment with PI3K inhibitor LY294002 for 18 hrs by immunoblot analysis; assay type: cell-based
T1 sequence (whole entry): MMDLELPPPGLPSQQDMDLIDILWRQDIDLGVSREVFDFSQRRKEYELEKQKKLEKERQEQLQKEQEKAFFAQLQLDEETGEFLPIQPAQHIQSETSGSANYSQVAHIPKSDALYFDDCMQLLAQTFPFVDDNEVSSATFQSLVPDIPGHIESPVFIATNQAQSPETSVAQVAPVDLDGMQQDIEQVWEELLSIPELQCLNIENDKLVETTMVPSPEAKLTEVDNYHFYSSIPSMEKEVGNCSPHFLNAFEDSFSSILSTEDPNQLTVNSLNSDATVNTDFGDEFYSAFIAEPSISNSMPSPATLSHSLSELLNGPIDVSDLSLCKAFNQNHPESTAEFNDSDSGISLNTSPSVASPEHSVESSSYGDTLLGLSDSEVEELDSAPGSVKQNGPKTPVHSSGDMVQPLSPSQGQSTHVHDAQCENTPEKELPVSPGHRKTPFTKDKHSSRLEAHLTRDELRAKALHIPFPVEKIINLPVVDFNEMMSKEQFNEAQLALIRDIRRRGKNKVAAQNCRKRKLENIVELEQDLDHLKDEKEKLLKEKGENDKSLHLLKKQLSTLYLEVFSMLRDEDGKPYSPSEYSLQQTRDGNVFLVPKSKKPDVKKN

[3] = target: T1, Nuclear factor erythroid 2-related factor 2 (Homo sapiens); assay: Activation of Nrf2 in human BEAS2B cells assessed as upregulation of NQO1 protein expression at 6.25 uM pretreated for 1 hr followed by co-treatment with PERK inhibitor GSK2606414 for 18 hrs by immunoblot analysis; assay type: cell-based
[4] = target: T1, Nuclear factor erythroid 2-related factor 2 (Homo sapiens); assay: Stabilization of Nrf2 in human BEAS2B cells assessed as protein half life at 6.25 uM preincubated for 8 hrs followed by CHX addition and measured over 10 to 40 mins by immunoblot analysis (reference value: 14.7 min); assay type: cell-based
BEAS-2B [5] = assay: Cytoprotective activity in human BEAS2B cells assessed as decrease in As(+3)-induced cell death at 3.12 to 25 uM preincubated for 8 hrs followed by As(+3) challenge and measured after 24 hrs by MTT assay; assay type: functional, cell-based
[6] = target: T1, Nuclear factor erythroid 2-related factor 2 (Homo sapiens); assay: Activation of Nrf2 in human BEAS2B cells assessed as upregulation of gamma-GCS protein expression at 3.12 to 25 uM after 12 hrs by immunoblot analysis; assay type: cell-based
[7] = target: T2, Nuclear factor erythroid 2-related factor 2 (Mus musculus) (UniProt Q60795); assay: Activation of Nrf2 in mouse Heap1c1c7 cells assessed as induction of NAD(P)H:quinone reductase activity at 6.25 uM pretreated for 1 hr followed by co-treatment with p38 MAPK inhibitor SB203580 for 24 hrs; assay type: cell-based
T2 sequence (whole entry): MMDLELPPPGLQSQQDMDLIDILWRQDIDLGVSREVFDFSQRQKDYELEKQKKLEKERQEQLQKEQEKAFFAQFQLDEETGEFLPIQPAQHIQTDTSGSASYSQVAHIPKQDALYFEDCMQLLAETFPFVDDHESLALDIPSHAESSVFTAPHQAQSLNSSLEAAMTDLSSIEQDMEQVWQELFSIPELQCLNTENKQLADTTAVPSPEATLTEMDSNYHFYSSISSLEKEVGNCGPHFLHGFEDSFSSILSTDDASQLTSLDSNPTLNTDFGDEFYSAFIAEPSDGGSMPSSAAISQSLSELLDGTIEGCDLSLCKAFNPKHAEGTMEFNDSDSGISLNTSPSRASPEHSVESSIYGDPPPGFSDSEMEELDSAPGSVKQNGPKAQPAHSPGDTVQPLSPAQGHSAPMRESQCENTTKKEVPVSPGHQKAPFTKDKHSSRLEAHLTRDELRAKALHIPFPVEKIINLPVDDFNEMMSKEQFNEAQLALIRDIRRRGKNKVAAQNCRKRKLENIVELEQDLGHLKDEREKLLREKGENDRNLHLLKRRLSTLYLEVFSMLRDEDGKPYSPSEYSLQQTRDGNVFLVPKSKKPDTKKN

[8] = target: T1, Nuclear factor erythroid 2-related factor 2 (Homo sapiens); assay: Activation of Nrf2 in human BEAS2B cells assessed as upregulation of Nrf2 protein expression at 6.25 uM pretreated for 1 hr followed by co-treatment with PERK inhibitor GSK2606414 for 18 hrs by immunoblot analysis; assay type: cell-based
BEAS-2B [9] = assay: Effect on Keap1 protein levels in human BEAS2B cells at <= 20 uM after 18 hrs by immunoblot analysis; assay type: functional, cell-based
BEAS-2B [10] = assay: Cytotoxicity against human BEAS2B cells assessed as decrease in cell viability at 6.25 after 24 hrs by MTT assay; assay type: cell-based
MDA-MB-231 = assay: Cytotoxicity against human MDA-MB-231 cells assessed as decrease in cell viability at 3.12 to 100 uM after 24 hrs by MTT assay; assay type: cell-based; conditions: mda-mb-231, 24 h
[11] = target: T2, Nuclear factor erythroid 2-related factor 2 (Mus musculus); assay: Activation of Nrf2 in mouse Heap1c1c7 cells assessed as induction of NAD(P)H:quinone reductase activity at 6.25 uM pretreated for 1 hr followed by co-treatment with PKC inhibitor Go6983 for 24 hrs; assay type: cell-based
[12] = target: T1, Nuclear factor erythroid 2-related factor 2 (Homo sapiens); assay: Activation of Nrf2 in human MDA-MB-231 cells assessed as upregulation of gamma-GCS protein expression after 16 hrs by immunoblot analysis; assay type: cell-based
[13] = target: T1, Nuclear factor erythroid 2-related factor 2 (Homo sapiens); assay: Activation of Nrf2 in human BEAS2B cells assessed as upregulation of NQO1 protein expression at 0.31 to 20 uM after 18 hrs by immunoblot analysis; assay type: cell-based
[14] = target: T1, Nuclear factor erythroid 2-related factor 2 (Homo sapiens); assay: Activation of Nrf2 in human BEAS2B cells assessed as upregulation of NQO1 protein expression at 50 to 100 uM after 18 hrs by immunoblot analysis; assay type: cell-based
[15] = target: T1, Nuclear factor erythroid 2-related factor 2 (Homo sapiens); assay: Induction of Nrf2 translocation from cytoplasm to nucleus in human BEAS2B cells at 6.25 uM after 18 hrs by immunoblot analysis; assay type: cell-based

Activity [2]: inactive
Activity [3]: inactive
T1/2 [4]: 27.6 min
Activity [6]: Active
Activity [7]: inactive
Activity [8]: inactive
Activity [11]: inactive
Activity [12]: Dose-dependent effect
Activity [13]: Dose-dependent effect
Activity [14]: inactive
Activity [15]: Active
SMILES: COc1ccc(-c2coc3cc(OC)cc(O)c3c2=O)cc1 [4',7-DIMETHOXY-5-HYDROXYGENISTEIN]
Activity (BEAS-2B [1]): Active
Activity (BEAS-2B [5]): Active
Activity (BEAS-2B [9]): inactive
Activity (BEAS-2B [10]): Non-Toxic
Activity (MDA-MB-231): Non-Toxic
